Values joined by “and” are separate entries in the source; they are usually repeats but may differ in a detail not shown here. Identical values can stand only once.
System: kidney tissues of treated or untreated rats
Test: Real-time qRT-PCR of marker transcripts in kidney tissue panel, discovery stage (Table 22)
Assay type: in vivo, rat
Design: AI502869_DB71_seg0 normalized Real Time PCR expression: unit not given beside the values
Conditions: rat kidney, listed as CadCl
Method: Before RT preparation the RNA was treated with DNA-free (Ambion, cat. No. AM1906) DNase treatment and removal—according to manufacturer protocol. DNase procedure was repeated until no DNA is detected in a PCR reaction using the RNA samples.
The mixture is then incubated for 5 min at 65° C. and then quickly chilled on ice. Thereafter, 20 μl of 5× SuperscriptII first strand buffer (Invitrogen, Cat. No. Y00146), 9.6 μl 0.1M DTT (Invitrogen, Cat. No. Y00147) and 160 units RNasin (Promega, Cat. No. N251A) are added, and the mixture is incubated for 10 min at 25° C., followed by further incubation at 42° C. for 2 min. […] The resulting cDNA is diluted 1:20 in TE buffer (10 mM Tris pH=8, 1 mM EDTA pH=8).
cDNA (5 μl), prepared as described above, is used as a template in Real-Time PCR reactions using the SYBR Green I assay (PE Applied Biosystem) with specific primers in 100 nM concentration if not indicated otherwise and UNG Enzyme (Eurogentech or equal) Amplification is effected as follows: 50° C. for 2 min, 95° C. for 10 min, and then 40 cycles of 95° C. for 15 sec, followed by 60° C. for 1 min (if not indicated otherwise). Amplification step is followed by dissociation step. Detection is performed by using the PE Applied Biosystem SDS 7000. The cycle in which the reactions achieved a threshold level (Ct) of fluorescence is registered and is used to calculate the relative transcript quantity in the RT reactions. Non-detected samples are assigned Ct value of 41 and are calculated accordingly. The relative quantity is calculated using the equation Q=efficiencŷ-Ct. The efficiency of the PCR reaction is calculated from a standard curve, created by using serial dilutions of several reverse transcription (RT) reactions. To minimize inherent differences in the RT reaction, the resulting relative quantities are normalized to normalization factor calculated as follows: […]
The relative quantity (Q) of each housekeeping gene in each sample is calculated as described above. In order to calculate the “relative Q relative to MED” each Q for each HSKP gene is divided by the median quantity of this gene in all panel samples. To finally achieve the normalization factor of each sample the geometric mean of all four “relative Q relative to MED” was calculated. The normalization factor was then used for further calculations.
The markers of the present invention were tested with regard to their expression in a panel of kidney tissues samples from treated and control rats. Unless otherwise noted, all experimental data relates to the novel polynucleotides and proteins of the present invention, named according to the segment being tested (as expression was tested through RT-PCR as described). Tests were then performed as described in the “Materials and Experimental Procedures” section above.
The qRT-PCR measurements were normalized according to each samples normalization factor as described in “RT Preparation and Real-Time qRT-PCR Analysis” and further multiplied by a constant factor for ease of viewing.

[1] = day1, individual animals (F and M)
[2] = day5, individual animals (F and M)
[3] = day28, individual animals (F and M)

For [Cl][Cd][Cl] [Cadmium chloride], the “RNU24174_DB71_seg8 normalized Real Time PCR” value [1] was 0.3 and 0.29 and 0.49 and 0.2 and 0.4 and 0.22, the “W41270_DB81_seg11 normalized Real Time PCR” value [1] was 1.44 and 1.78 and 1.48 and 0.5 and 0.62 and 0.43 and the “W64472_DB81_seg2 normalized Real Time PCR” value [1] was 1.07 (2×) and 1.1 and 0.55 and 1.45 and 0.41. The “W83813_DB81_seg27 normalized Real Time PCR” value [1] was 2.07 and 2.19 and 1.66 and 0.47 and 0.51 and 0.65, the “AA686189_DB71_seg6 normalized Real Time PCR expression” value (day1, individual animals) was 0.38 (2×) and 0.52 and 0.36 and 0.59 and 0.64 and the “AA799594_DB71_seg0 normalized Real Time PCR expression” value (day1, individual animals) was 1.25 and 1.43 and 1.27 and 1.09 and 1.15 and 1.05. The “AA964541_DB71_seg0 normalized Real Time PCR expression” value (day1, individual animals) was 0.41 and 0.55 and 0.3 and 0.28 and 0.6 and 0.56, the “AI045075_DB71_seg6 normalized Real Time PCR expression” value (day1, individual animals) was 0.6 and 0.54 and 0.5 and 0.66 and 0.87 and 0.84 and the “AI454051_DB71_seg0 normalized Real Time PCR expression” value (day1, individual animals) was 1.47 and 1.46 and 1.08 and 1.48 and 2.13 and 0.77. The “AI502869_DB71_seg0 normalized Real Time PCR expression” value (day1, individual animals) was 0.54 and 1.37 and 0.56 and 1.14 and 2.59 and 0.86, the “AW919147_DB71_seg0 normalized Real Time PCR expression” value (day1, individual animals) was 1 (2×) and 1.21 and 0.76 and 1.1 and 1.02 and the “BI293562_DB71_seg2 normalized Real Time PCR expression” value (day1, individual animals) was 0.36 and 0.4 and 0.61 and 0.5 and 0.51 and 0.39. The “H31045_DB71_seg5 normalized Real Time PCR expression” value (day1, individual animals) was 1.97 and 0.39 (2×) and 0.19 (2×) and 0.18, the “H31799_DB71_seg23 normalized Real Time PCR expression” value (day1, individual animals) was 1 (2×) and 1.24 and 0.91 and 0.9 and 1.15 and the “H31883_DB71_seg13 normalized Real Time PCR expression” value (day1, individual animals) was 0.73 and 0.63 and 0.87 and 0.65 and 0.71 and 0.78. The “H33998_DB71_seg19 normalized Real Time PCR” value [2] was 2 and 0.82 and 1.39 and 1.36 and 1.64, the “MUSCYCG1R_DB81_seg15-17 normalized Real Time PCR” value [2] was 1.72 and 1.13 and 1.2 and 0.97 and 1.15 and the “RATLRFI_DB71_seg9 normalized Real Time PCR” value [2] was 0.35 and 0.31 and 0.17 and 0.18 and 0.29. The “RATRAB13X_DB71_seg11-13 normalized Real Time PCR” value [2] was 0.95 and 0.9 and 0.75 (2×) and 0.62, the “RNU24174_DB71_seg8 normalized Real Time PCR” value [2] was 0.33 and 0.27 and 0.12 (2×) and 0.13 and the “W41270_DB81_seg11 normalized Real Time PCR” value [2] was 2.49 and 1.17 and 1.02 and 1.43 and 1.52. The “W64472_DB81_seg2 normalized Real Time PCR” value [2] was 1.65 and 0.78 and 2.23 and 1.89 and 1.63, the “W83813_DB81_seg27 normalized Real Time PCR” value [2] was 3.79 and 1.59 and 1.48 and 1.67 and 1.76 and the “AA686189_DB71_seg6 normalized Real Time PCR expression” value (day5, individual animals) was 0.47 and 0.29 and 0.39 and 0.5 and 0.38. The “AA799594_DB71_seg0 normalized Real Time PCR expression” value (day5, individual animals) was 1.12 and 0.9 and 1.23 and 0.98 and 1.01, the “AA964541_DB71_seg0 normalized Real Time PCR expression” value (day5, individual animals) was 0.29 and 0.27 and 0.42 (2×) and 0.41 and the “AI045075_DB71_seg6 normalized Real Time PCR expression” value (day5, individual animals) was 0.98 and 0.49 and 0.85 and 0.81 and 0.83. For the same compound, the “AI454051_DB71_seg0 normalized Real Time PCR expression” value (day5, individual animals) was 1.54 and 1.35 and 0.84 and 0.68 and 0.92, the “AI502869_DB71_seg0 normalized Real Time PCR expression” value (day5, individual animals) was 0.94 and 0.73 and 0.69 and 0.68 and 0.85 and the “AW919147_DB71_seg0 normalized Real Time PCR expression” value (day5, individual animals) was 1.06 and 1.86 and 1.3 and 0.94 and 1. For the same compound, the “BI293562_DB71_seg2 normalized Real Time PCR expression” value (day5, individual animals) was 0.43 and 0.63 and 0.48 and 0.88 and 0.78, the “H31045_DB71_seg5 normalized Real Time PCR expression” value (day5, individual animals) was 0.56 and 0.32 and 0.42 and 0.4 and 0.46 and the “H31799_DB71_seg23 normalized Real Time PCR expression” value (day5, individual animals) was 0.83 and 0.99 and 1.17 and 0.98 and 0.94. The “H31883_DB71_seg13 normalized Real Time PCR expression” value (day5, individual animals) was 0.87 and 0.86 and 0.83 and 0.78 and 0.64, the “H33998_DB71_seg19 normalized Real Time PCR” value [3] was 1.26 and 0.59 and 0.43 and 0.45 and 0.26 and 0.41 and the “MUSCYCG1R_DB81_seg15-17 normalized Real Time PCR” value [3] was 0.88 and 0.71 and 0.65 and 0.72 and 0.44 and 0.58. The “RATLRFI_DB71_seg9 normalized Real Time PCR” value [3] was 0.66 and 0.85 and 1.78 and 0.28 and 0.67 and 0.56, the “RATRAB13X_DB71_seg11-13 normalized Real Time PCR” value [3] was 1.37 and 0.92 and 0.96 and 1.11 and 1.08 and 0.88 and the “RNU24174_DB71_seg8 normalized Real Time PCR” value [3] was 0.21 and 0.45 and 1.21 and 0.25 (2×) and 0.39. For the same compound, the “W41270_DB81_seg11 normalized Real Time PCR” value [3] was 0.86 and 0.55 and 0.83 and 0.33 and 0.27 and 0.39, the “W64472_DB81_seg2 normalized Real Time PCR” value [3] was 0.89 and 0.55 and 0.43 and 0.67 and 0.47 and 0.57 and the “W83813_DB81_seg27 normalized Real Time PCR” value [3] was 0.95 and 0.64 and 0.46 (2×) and 0.34 and 0.53. For the same compound, the “AA686189_DB71_seg6 normalized Real Time PCR expression” value (day28, individual animals) was 0.64 and 0.58 and 1.94 and 0.4 and 0.51 and 0.82, the “AA799594_DB71_seg0 normalized Real Time PCR expression” value (day28, individual animals) was 1.14 and 0.88 and 0.37 and 0.66 and 0.77 and 0.83 and the “AA964541_DB71_seg0 normalized Real Time PCR expression” value (day28, individual animals) was 0.32 (2×) and 0.42 and 1.72 and 0.55 and 0.72. The “AI045075_DB71_seg6 normalized Real Time PCR expression” value (day28, individual animals) was 1.72 and 1.15 and 0.86 and 0.75 and 0.63 and 0.71, the “AI454051_DB71_seg0 normalized Real Time PCR expression” value (day28, individual animals) was 0.79 and 1.05 and 0.54 and 1.29 and 1.31 and 0.75 and the “AI502869_DB71_seg0 normalized Real Time PCR expression” value (day28, individual animals) was 0.73 and 1.22 and 0.44 and 2.47 and 2.93 and 1.18. For the same compound, the “AW919147_DB71_seg0 normalized Real Time PCR expression” value (day28, individual animals) was 0.77 and 0.91 and 0.42 and 1.31 and 1.18 and 0.68, the “BI293562_DB71_seg2 normalized Real Time PCR expression” value (day28, individual animals) was 0.4 and 0.81 and 2.59 and 0.72 and 1.35 and 0.31 and the “H31045_DB71_seg5 normalized Real Time PCR expression” value (day28, individual animals) was 2.88 and 0.83 and 0.57 and 2.23 and 2.41 and 2. For the same compound, the “H31799_DB71_seg23 normalized Real Time PCR expression” value (day28, individual animals) was 1.59 and 0.94 and 0.67 and 1.05 and 1.02 and 0.76 and the “H31883_DB71_seg13 normalized Real Time PCR expression” value (day28, individual animals) was 0.97 and 1.02 and 0.86 (2×) and 0.95 and 0.8.
